Literature values in patent publication US9636305B2, “Antiemetic extended release solid dosage forms” (RedHill Biopharma Ltd., priority 2013, dated 2017).

Conditions: scale of Pliska et al., J. Chromatog. 216, 79, 1981

hydropathy value	Compound
−2.15	N[C@@H](CC(=O)O)C(=O)O [aspartic acid]
0	NCC(=O)O [glycine]
1.83	CC[C@H](C)[C@H](N)C(=O)O [iso-leucine]
